For the assay, the target named is isolated activated GpIIb/IIIa receptor (Homo sapiens, UniProt P05106+P08514). As to the kind of experiment: GpIIb/IIIa-Fibrinogen-ELISA (inhibition of fibrinogen binding to coated receptor). Conditions: inhibition of fibrinogen-GpIIb/IIIa interaction, O.D. at 405 nm. Here is the method:
Microtitre plates are coated overnight with 2 μg/ml isolated activated GpIIb/IIIa receptor. After removing the unbound receptor by several washing steps, the surface of the plates is blocked with 1% casein and washed again. The test substance is added in the required concentrations and the plates are incubated for 10 minutes while shaking in a linear shaker. The natural ligand of the gpIIb/IIIa receptor, fibrinogen, is added. After 1 hour of incubation the unbound fibrinogen is removed by several washing steps and bound fibrinogen is detected by a peroxidase-conjugated anti-fibrinogen monoclonal antibody by measuring the O.D. at 405 nm in an ELISA-reader. Inhibition of fibrinogen-GpIIb/IIIa interaction results in a low O.D. An IC50 is calculated in relation to a concentration-effect curve.
The GpIIb/IIIa-Fibrinogen-ELISA is a modification of the assays described in the following literature:
Nachman, R. L. & Leung, L. L. K. (1982): Complex formation of platelet membrane glycoproteins IIb and IIIa with fibrinogen. J. Clin. Invest. 69:263-269. Wright, P. S. et al. (1993): An echistatin C-terminal peptide activated GpIIbIIIa binding to fibrinogen, fibronectin, vitronectin and collagen type I and type IV. Biochem. J. 293:263-276.

Chain of isolated activated GpIIb/IIIa receptor (P08514 32-887 limits assumed): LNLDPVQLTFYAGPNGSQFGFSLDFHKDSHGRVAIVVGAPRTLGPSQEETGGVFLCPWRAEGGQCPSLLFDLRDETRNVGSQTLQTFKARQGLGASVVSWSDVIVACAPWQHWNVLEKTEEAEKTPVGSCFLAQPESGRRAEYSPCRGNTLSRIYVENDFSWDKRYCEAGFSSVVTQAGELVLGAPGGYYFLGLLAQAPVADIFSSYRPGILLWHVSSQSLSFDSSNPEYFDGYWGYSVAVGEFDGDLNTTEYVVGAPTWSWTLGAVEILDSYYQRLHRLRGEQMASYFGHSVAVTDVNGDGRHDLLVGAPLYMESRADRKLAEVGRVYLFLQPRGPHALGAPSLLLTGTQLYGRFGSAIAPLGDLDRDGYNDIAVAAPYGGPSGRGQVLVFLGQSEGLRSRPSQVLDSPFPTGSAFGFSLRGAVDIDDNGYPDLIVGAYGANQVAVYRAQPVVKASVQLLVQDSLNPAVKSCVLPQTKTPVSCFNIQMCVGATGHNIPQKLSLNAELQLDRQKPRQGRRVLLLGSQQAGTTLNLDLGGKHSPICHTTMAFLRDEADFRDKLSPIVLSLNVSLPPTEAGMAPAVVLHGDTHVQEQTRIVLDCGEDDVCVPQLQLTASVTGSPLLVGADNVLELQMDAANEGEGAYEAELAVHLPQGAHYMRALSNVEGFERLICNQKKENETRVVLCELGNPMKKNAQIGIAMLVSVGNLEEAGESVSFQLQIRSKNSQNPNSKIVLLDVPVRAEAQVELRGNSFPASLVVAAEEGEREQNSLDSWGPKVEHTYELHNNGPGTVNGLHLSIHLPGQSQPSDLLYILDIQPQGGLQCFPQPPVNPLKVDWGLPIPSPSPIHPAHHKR
Chain of isolated activated GpIIb/IIIa receptor (P08514 891-1039 partner limits assumed): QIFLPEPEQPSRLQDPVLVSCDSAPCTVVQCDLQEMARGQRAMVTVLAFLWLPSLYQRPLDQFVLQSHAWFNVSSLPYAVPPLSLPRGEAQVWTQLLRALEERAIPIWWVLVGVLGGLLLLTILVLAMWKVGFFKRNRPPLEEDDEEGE
Chain of isolated activated GpIIb/IIIa receptor (P05106 27-788): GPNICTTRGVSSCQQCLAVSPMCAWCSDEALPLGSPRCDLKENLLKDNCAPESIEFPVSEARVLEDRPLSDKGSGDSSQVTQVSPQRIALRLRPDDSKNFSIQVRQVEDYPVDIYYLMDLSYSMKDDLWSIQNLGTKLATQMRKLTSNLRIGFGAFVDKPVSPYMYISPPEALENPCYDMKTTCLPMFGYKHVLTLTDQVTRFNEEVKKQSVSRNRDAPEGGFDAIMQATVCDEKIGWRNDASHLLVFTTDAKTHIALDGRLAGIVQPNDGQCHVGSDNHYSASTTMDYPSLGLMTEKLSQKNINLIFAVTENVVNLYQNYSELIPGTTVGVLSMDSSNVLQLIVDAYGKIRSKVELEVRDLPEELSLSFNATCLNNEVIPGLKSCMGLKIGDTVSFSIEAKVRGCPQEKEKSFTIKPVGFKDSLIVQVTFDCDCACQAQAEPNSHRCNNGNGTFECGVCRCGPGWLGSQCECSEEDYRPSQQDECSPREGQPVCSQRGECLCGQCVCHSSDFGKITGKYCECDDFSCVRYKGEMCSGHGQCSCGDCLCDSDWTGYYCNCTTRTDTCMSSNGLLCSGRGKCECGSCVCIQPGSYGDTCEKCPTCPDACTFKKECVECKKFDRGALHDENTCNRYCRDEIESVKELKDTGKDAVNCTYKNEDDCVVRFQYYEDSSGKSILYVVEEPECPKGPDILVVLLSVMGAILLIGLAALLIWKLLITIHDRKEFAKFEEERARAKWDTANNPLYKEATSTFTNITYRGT

The molecule `O=C(O)CC1CCC(CCN2CCN(c3ccncc3)CC2)CC1` (centres unmarked) [Example 4, {4-[2-(4-Pyridin-4-yl-piperazin-1-yl)-ethyl]-cyclohexyl} -acetic acid] registered a half-inhibitory concentration (IC50) of 0.1 µM.
In the case of `O=C(O)CC1(O)CCC(N2CCN(c3ccncc3)CC2)CC1` (stereo not drawn) [cis-1-hydroxy-4-[4-(4-pyridyl)-piperazin-1-yl] -acetic acid] it was 2.5 µM.

What is called IC50 is the concentration needed to halve the response being measured. A high value points to lower potency.

The values above are taken from patent US20010009912A1, “NEW DERIVATIVES OF PYRIDIL PIPERAZINE OR PYRIDAZINYL PIPERAZYL, PROCESS FOR PRODUCTION THEREOF AND MEDICAMENTS CONTAINING THESE COMPOUNDS” (priority 1995, published 2001).
